Measurements as given in US7622638B2, “Genetic manipulation of condensed tannins” (priority 2002, dated 2009).

Legend:
[1] = target: AtBAN (Arabidopsis thaliana, UniProt Q9SEV0); type: biochemical; conditions: for conversion of flavan-3-ol into its isomer on incubation with AtBAN: in the presence of NADPH; for reduction of anthocyanidin substrate to flavan-3-ol product by AtBAN: AtBAN protein extract (4 month old frozen), NADPH as coenzyme, HPLC
[2] = tested on: MtBAN; assay: Anthocyanidin reductase activity assay with recombinant MtBAN protein extract (HPLC of products); type: biochemical, Medicago truncatula; conditions: for conversion of flavan-3-ol into its isomer on incubation with MtBAN: in the presence of NADPH; for reduction of anthocyanidin substrate to flavan-3-ol product(s) by MtBAN: MtBAN protein extract, NADPH, Tris-HCl pH 7.0, 30° C. for 30 min, HPLC
[3] = tested on: Anthocyanidin reductase; assay: Anthocyanidin reductase assay with desalted crude enzyme from barley testa tissue; type: biochemical, Hordeum vulgera (barley) cv. morex; conditions: 100 μM cyanidin, 1 mM NADPH, 30° C. for 30 min
Method: (§1) Lotus corniculatus, Desmodium uncinatum and Barley cv. Morex were grown in a green house. Young leaves from L. corniculatus, unexpanded leaves, and young pods as well as open flowers and flower buds from D. uncinatum, and young grains from Barley were collected. Testa of barley grains were excised and pooled together for enzyme extraction. Mature grape fruit stored at −80° C. was treated in pH 7 100 mM Tris.HCl buffer for 30 seconds for isolated the skin for enzyme extraction.
(§2) A fresh one-gram leaf sample of L. corniculatus, one-gram testa from barley, and 9 grams of grape fruit skin, as well as two grams of flowers, 3 grams of young pods and 3 grams of young unexpanded leaves from Desmodium uncinatum were ground into homogenate fine powder in liquid nitrogen. The follow buffer systems were used for enzyme extraction. Extraction buffer 1: pH7 100 mM Tris.HCl, 10% glycerol and 2 mM 1,4-dithiothreitol; Extraction buffer 2: pH8 50 mM phosphate buffer, 10% glycerol, 1.5% polyethyleneglycerol 4000 (PEG-4000), 2 mM pH 8.0 Na-DETA, 25 mM sodium ascorbate, 20 mM β-mecaptoenthanol, and 5 mM 1,4-dithiothreitol; Extraction buffer 3: pH8 100 mM Tris.HCl, 10% glycerol 1.5% polyethyleneglycerol 4000 (PEG-4000), 2 mM pH 8.0 Na-DETA, 25 mM sodium ascorbate, 80 mM β-mecaptoenthanol, and 5 mM 1,4-dithiothreitol. […]

[4] = tested on: Anthocyanidin reductase; assay: Anthocyanidin reductase assay with desalted crude enzyme from grape fruit skin; type: biochemical, Vitis vinifer; conditions: 100 μM cyanidin, 1 mM NADPH, 30° C. for 30 min
Method: as §1, §2

[5] = tested on: Anthocyanidin reductase (ANR); assay: Anthocyanidin reductase assay with desalted crude enzyme from Desmodium uncinatum tissues; type: biochemical; conditions: 100 μM cyanidin, 1 mM NADPH
Method: as §1
A fresh one-gram leaf sample of L. corniculatus, one-gram testa from barley, and 9 grams of grape fruit skin, as well as two grams of flowers, 3 grams of young pods and 3 grams of young unexpanded leaves from Desmodium uncinatum were ground into homogenate fine powder in liquid nitrogen. The follow buffer systems were used for enzyme extraction. Extraction buffer 1: pH7 100 mM Tris.HCl, 10% glycerol and 2 mM 1,4-dithiothreitol; Extraction buffer 2: pH8 50 mM phosphate buffer, 10% glycerol, 1.5% polyethyleneglycerol 4000 (PEG-4000), 2 mM pH 8.0 Na-DETA, 25 mM sodium ascorbate, 20 mM β-mecaptoenthanol, and 5 mM 1,4-dithiothreitol; Extraction buffer 3: pH8 100 mM Tris.HCl, 10% glycerol 1.5% polyethyleneglycerol 4000 (PEG-4000), 2 mM pH 8.0 Na-DETA, 25 mM sodium ascorbate, 80 mM β-mecaptoenthanol, and 5 mM 1,4-dithiothreitol.
The homogenate powder of lotus leaf and barley testa tissue was suspended in 5 ml extraction buffer 1, in which 1% proteinase inhibitor (Sigma) (V/V) was added. The homogenate powder of flowers and pods from Desmodium was suspended in extraction buffer 2, also in which 1% proteinase inhibitor (Sigma) (V/V) was added. The fine powder of Desmodium leaves or grape fruit skin was respectively suspended in 6 ml or 50 ml extraction buffer 3, in which 1% proteinase inhibitor (Sigma) (V/V) is added. The homogenates were vortexed vigorously and stayed on ice for 5-10 mm, squeezed through microcloth into 50 ml tubes and then 1/5 (W/V) equilibrated Dowex 1×2 was added into collected squeezed mixture solution. […]

[6] = tested on: Anthocyanidin reductase; assay: Anthocyanidin reductase assay with desalted crude enzyme from Lotus corniculatus leaves; type: biochemical; conditions: young leaves; 100 μM cyanidin, 1 mM NADPH, 30° C. for 30 min
Method: as §1, §2

[7] = reactions containing leucoanthocyanidins, repeated attempts

Chain of AtBAN (Q9SEV0 other isoform, or with tags, fused parts or gaps K55Q/I146L/V156I/E157D/T179K/K185E): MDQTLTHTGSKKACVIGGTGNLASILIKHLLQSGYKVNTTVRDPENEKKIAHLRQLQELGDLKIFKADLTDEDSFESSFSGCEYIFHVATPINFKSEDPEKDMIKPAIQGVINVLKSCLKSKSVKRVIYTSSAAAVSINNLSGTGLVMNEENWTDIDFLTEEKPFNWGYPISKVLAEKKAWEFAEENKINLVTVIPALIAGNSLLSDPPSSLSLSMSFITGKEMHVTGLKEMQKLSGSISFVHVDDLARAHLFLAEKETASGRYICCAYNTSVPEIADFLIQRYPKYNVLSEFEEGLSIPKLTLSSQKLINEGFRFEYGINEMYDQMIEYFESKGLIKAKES

Compound: Oc1cc(O)c2c(c1)O[C@H](c1ccc(O)c(O)c1)[C@@H](O)C2 [(+)-catechin]
- conversion of flavan-3-ol into its isomer on incubation with AtBAN [1]: does not produce
- conversion of flavan-3-ol into its isomer on incubation with MtBAN [2]: does not produce

Compound: Oc1cc(O)c2c(c1)O[C@H](c1ccc(O)c(O)c1)[C@H](O)C2 [(−) epicatechin, (−)-epicatechin]
- conversion of flavan-3-ol into its isomer on incubation with AtBAN [1]: does not produce
- conversion of flavan-3-ol into its isomer on incubation with MtBAN [2]: does not produce

Compound: NC(=O)C1=CN([C@@H]2O[C@H](COP(=O)(O)OP(=O)(O)OC[C@H]3O[C@@H](n4cnc5c(N)ncnc54)[C@H](O)[C@@H]3O)[C@@H](O)[C@H]2O)C=CC1 [NADH]
- conversion with NADH relative to the level achieved with NADPH at the same concentration ([2]; NADH 2 mM final concentration substituted for NADPH): approximately 50%

Compound: NC(=O)C1=CN([C@@H]2O[C@H](COP(=O)(O)OP(=O)(O)OC[C@H]3O[C@@H](n4cnc5c(N)ncnc54)[C@H](OP(=O)(O)O)[C@@H]3O)[C@@H](O)[C@H]2O)C=CC1 [NADPH]
- co-factor dependence of conversion of anthocyanidins to flavan-3-ols ([2]; NADPH omitted from the enzyme assay mixtures): NADPH-dependent

Compound: Oc1cc(O)c2cc(O)c(-c3ccc(O)c(O)c3)[o+]c2c1.[Cl-] [cyanidin, cyanidin chloride]
- conversion of cyanidin by extract with NADPH [3]: producing epicatechin
- reduction of anthocyanidin substrate to flavan-3-ol product by AtBAN [1]: reduction of cyanidin to epicatechin
- conversion of cyanidin by extract with NADPH [4]: producing epicatechin
- conversion of cyanidin by extract with NADPH ([5]; ANR from flowers): producing epicatechin
- conversion of cyanidin by extract with NADPH ([5]; ANR from leaves): producing epicatechin
- conversion of cyanidin by extract with NADPH ([5]; ANR from young pods): producing epicatechin
- reduction of anthocyanidin substrate to flavan-3-ol product(s) by MtBAN [2]: reducing cyanidin to the corresponding flavan-3-ols, catechin and epicatechin
- conversion of cyanidin by extract with NADPH [6]: producing epicatechin

Compound: Oc1cc(O)c2cc(O)c(-c3cc(O)c(O)c(O)c3)[o+]c2c1 [delphinidin, delphinidin chloride]
- reduction of anthocyanidin substrate to flavan-3-ol product by AtBAN [1]: delphinidin into gallocatechin
- reduction of anthocyanidin substrate to flavan-3-ol product(s) by MtBAN [2]: catalyzed the reduction of delphinidin into putative gallo-catechin and epi-gallocatechin

Compound: Oc1ccc(-c2[o+]c3cc(O)cc(O)c3cc2O)cc1 [pelargonidin, Pelargonidin chloride]
- reduction of anthocyanidin substrate to flavan-3-ol product by AtBAN [1]: pelargonidin into epi-alfzelechin
- reduction of anthocyanidin substrate to flavan-3-ol product(s) by MtBAN [2]: tentatively identified as epi-afzelechin

Compound: leucoanthocyanidins
- LAR activity with recombinant AtBAN [1, 7]: no LAR activity was observed
- LAR activity with recombinant MtBAN [2, 7]: no LAR activity was observed
